“Also recorded” adds a separate entry of the source.
Tests used:
Format in all cases: cell-based, mouse
IL-1β = test: Microglial inflammasome activation: IL-1β production (ELISA of culture medium); conditions: LPS 100 ng/ml 3 h + Aβ1-42 fibrils 10 μM overnight; microglia from 9-mo 5XFAD and OPN-KO.5XFAD mice; rmOPN 12.5 pg/ml, Cilengitide 10 μM
Procedure: (§1) Intracellular Caspase-1 activity was measured by bioluminescent assay of microglia from 9-month-old 5XFAD mice. Detection of the specificity of Caspase-1 activity was confirmed by a selective Caspase-1 inhibitor (Ac-YVAD-CHO (SEQ ID NO: 13), 1 μM). Bar plots are representative results from three independent experiments. […] Activation of Caspase-1 and IL1β by provision of rmOPN was blocked following provision of αVβ3 inhibitor to microglia from 9-mo old 5XFAD and OPN-KO.5XFAD mice (n=3). ****p<0.0001, ***p<0.001, **p<0.01, *p<0.05, ns: not significant by one-way ANOVA with Bonferroni's multiple comparisons test. U.D. undetectable.
(§2) In these studies, microglia isolated from 9-mo old 5XFAD and OPN-KO.5XFAD mice were seeded into 96-well plates at 6×10^4 cells/well in conventional microglia culture medium (DMEM-F12 with 10% fetal bovine serum+1% penicillin/streptomycin+10 ng/ml recombinant mouse M-CSF). […] Microglial intracellular Caspase-1 activity was analyzed by the bioluminescent Caspase-Glo® 1 Inflammasome Assay Kit (Promega) per the manufacturer's instruction. […] Culture medium was collected for quantitative determination of microglial […] DuoSet ELISA kit (R&D Systems) according to the manufacturer's instructions.

Caspase-1 = test: Microglial inflammasome activation: intracellular Caspase-1 activity (bioluminescent Caspase-Glo 1 assay); conditions: LPS 100 ng/ml 3 h + Aβ1-42 fibrils 10 μM overnight; microglia from 9-mo 5XFAD and OPN-KO.5XFAD mice; rmOPN 12.5 pg/ml, Cilengitide 10 μM
Procedure: as §1, §2

[1] = system: CD11c^+ microglia of 9-mo old OPN-KO.5XFAD mice; test: In vitro microglia assay: impact of OPN-αVβ3 interaction on CD11c^+ microglial TNF-α production; conditions: 9-mo old OPN-KO.5XFAD microglia, Cilengitide 10 μM 1 h pre-incubation, then rmOPN 12.5 pg/ml, 24 h
Procedure: (a) Representative flow cytometry plots and quantification of TREM2 mean fluorescence intensity (MFI) in CD11c^+ OPN^+ and CD11c^+ OPN^− microglial subsets of 9-mo old 5XFAD mice. […] Statistical analysis was performed by two-tailed Student's t test. (b) Representative flow cytometry plots of TNF-α and TREM2 expression in CD11c^− OPN^− microglial subset of 9-mo old 5XFAD mice. CD11c^− OPN^− microglia expressed low level of TNF-α and negligible level of TREM2. The plots were representative results from 3 independent experiments. (c) Microglial expression of canonical OPN receptors in 5XFAD mice at different stages of disease. […] The histogram of CD44 and the contour plot of αVβ3 and αVβ5 were the representative results from 3 independent experiments. (d) The impact of OPN-αVβ3 interaction on CD11c^+ microglial production of TNF-α. […] (e) Representative flow cytometry plots and quantification of TREM2 MFI in CD11c^+ microglia of 9-mo old 5XFAD and OPN-KO.5XFAD mice (n=3). […] Two-tailed Student's t test was performed for statistical analysis.
To test the impact of OPN-αVβ3 interaction on CD11c^+ microglial pro-inflammatory response, microglia were enriched by anti-CD11b microbeads (purity >95%, Miltenyi) from 9-mo old OPN-KO.5XFAD mice and were seeded into 12-well plates at 3×10^5 cells/well in conventional microglia culture medium (DMEM-F12 with 10% fetal bovine serum+1% penicillin/streptomycin+10 ng/ml recombinant mouse M-CSF). Microglia were pre-incubated with a selective αVβ3 inhibitor, Cilengitide (10 μM) for 1 h followed by the addition of 12.5 pg/ml recombinant mouse OPN (rmOPN) and cultured for 24 h before analysis of CD11c^+ microglial expression of TNF-α by flow cytometry.

CD11c^+αVβ3^+ microglia = test: Ki-67 and TNF-α expression in microglia of 9-mo old WT mice incubated with rmOPN or αVβ3 inhibitor (flow cytometry); conditions: 9-mo old WT mice microglia, 24 h with or without 12.5 μg/ml rmOPN or 10 μM cilengitide
Procedure: (A) Microglia isolated from P5 and 9-mo old WT, OPN-KO and OPN-i-KI mice were incubated×1 h with […] pHrodo Green-labeled synaptosomes per 1×10^5 cells followed by flow cytometry analysis of CD11c^+ microglial engulfment of synaptosomes. CD11c^+ microglia from P5, but not 9-mo old WT mice, were highly phagocytic for engulfing synaptosomes in vitro. […] (C) CD11c^+ microglia expressed high levels of proliferation marker Ki-67 early in development (P5). OPN-s, but not OPN-i deficiency decreased Ki-67 expression in CD11c^+ microglia (n=3). *p<0.05 by one-way ANOVA with Bonferroni's multiple comparisons test. […] (E) Microglia isolated from 9-mo old WT mice were incubated×24 h with or without 12.5 μg/ml recombinant mouse OPN (rmOPN) or 10 μM αVβ3 inhibitor (cilengitide) followed by flow cytometry analysis of proliferation marker Ki-67. […] (G) Microglia isolated from 9-mo old WT mice were incubated×24 h with or without 12.5 μg/ml recombinant mouse OPN (rmOPN) or 10 μM αVβ3 inhibitor (cilengitide) followed by flow cytometry analysis of TNF-α expression. […] Data are shown as mean±s.e.m.
Microglial staining for flow cytometry analysis. Microglia were stained with Ghost dye Violet 510 (1:1000, Tonbo Biosciences) to exclude dead cells followed by Fc receptor blocking using CD16/CD32 antibody (1:100, BD Biosciences) to avoid non-specific staining. Appropriate microglial surface markers were used for staining, including anti-CD11b (1:100 Biolegend), anti-CD45 (1:100 Biolegend), anti-CD11c (1:50 Biolegend), anti-CD36 (1:100, Biolegend), anti-CD209a (1:100, Biolegend), anti-αV integrin (1:50, Biolegend), anti-β3 integrin (1:50, Biolegend), anti-CD86 (1:100, Biolegend), and anti-MHC II (1:100, Biolegend), followed by fixation and permeabilization for subsequent intracellular staining with anti-OPN (1:10, R&D Systems), anti-TNF-α (1:50, Biolegend) and intranuclear staining with anti-Ki-67 (1:100, Biolegend).

| TNF-α expression in CD11c^+αVβ3^+ microglia (CD11c^+αVβ3^+ microglia) | Compound | microglial IL-1β production (IL-1β) | microglial intracellular Caspase-1 activity (Caspase-1) | TNF-α production by CD11c^+ microglia [1] | TNF-α production by CD11c^+ microglia ([1]; listed as αVβ3 inhibitor) | Ki-67 expression in CD11c^+αVβ3^+ microglia (CD11c^+αVβ3^+ microglia) |
| --- | --- | --- | --- | --- | --- | --- |
| fully abolished | CC(C)[C@H]1C(=O)N[C@@H](CCCN=C(N)N)C(=O)NCC(=O)N[C@@H](CC(=O)O)C(=O)N[C@H](Cc2ccccc2)C(=O)N1C [Cilengitide] | blocked | blocked | abolished | fully abrogated | markedly reduced; also recorded: fully abrogated |
| Upregulation of TNF-α expression | rmOPN: recombinant mouse OPN (osteopontin) | substantially increased; also recorded: Activation | substantially increased; also recorded: Activation | induced TNF-α expression; also recorded: Upregulated TNF-α production |  | enhanced Ki-67 expression |

Reference: patent US20250381277A1, “COMPOSITIONS AND METHODS FOR TREATMENT OF NEUROLOGICAL DISORDERS” (Dana-Farber Cancer Institute, Inc., priority 2022, published 2025)
